# Experimental data as given in ChEMBL document CHEMBL1821555, “Identification of a series of 4-[3-(quinolin-2-yl)-1,2,4-oxadiazol-5-yl]piperazinyl ureas as potent smoothened antagonist hedgehog pathway inhibitors” (Bioorg Med Chem Lett, 2011).
# What was measured:
# Protein smoothened [1] = target: T1, Protein smoothened (Homo sapiens, UniProt Q99835); assay: Displacement of Bodipy-labelled cyclopamine from Smo expressed in COS-1 cells in presence of 2% FBS after 4 to 6 hrs by FACS flow cytometric analysis; format: cell-based
# Shh Light II = assay: Inhibition of Shh signaling in mouse Shh-light2 cells by Gli-dependent firefly luciferase reporter gene assay; format: functional, cell-based
# Protein smoothened [2] = target: T1, Protein smoothened; assay: Inhibition of Bodipy-labelled cyclopamine binding to Smo expressed in COS-1 cells in presence of 20% NHS after 4 to 6 hrs by FACS flow cytometric analysis; format: cell-based
# [3] = Terminal half life in rat; format: ADME, organism-based; conditions: in vivo, read-out: beta t1/2 (converted)
# [4] = Clearance in rat; format: ADME, organism-based; conditions: in vivo
# [5] = Intrinsic clearance in rat liver microsomes assessed per mg of protein; format: ADME, Microsome
# [6] = Fraction unbound in human plasma; format: ADME, cell-free
# [7] = Lipophilicity, log D of the compound; format: physicochemical; conditions: octanol/water
# [8] = Oral bioavailability in rat; format: ADME, organism-based; conditions: in vivo
# T1 sequence (Q99835 whole entry): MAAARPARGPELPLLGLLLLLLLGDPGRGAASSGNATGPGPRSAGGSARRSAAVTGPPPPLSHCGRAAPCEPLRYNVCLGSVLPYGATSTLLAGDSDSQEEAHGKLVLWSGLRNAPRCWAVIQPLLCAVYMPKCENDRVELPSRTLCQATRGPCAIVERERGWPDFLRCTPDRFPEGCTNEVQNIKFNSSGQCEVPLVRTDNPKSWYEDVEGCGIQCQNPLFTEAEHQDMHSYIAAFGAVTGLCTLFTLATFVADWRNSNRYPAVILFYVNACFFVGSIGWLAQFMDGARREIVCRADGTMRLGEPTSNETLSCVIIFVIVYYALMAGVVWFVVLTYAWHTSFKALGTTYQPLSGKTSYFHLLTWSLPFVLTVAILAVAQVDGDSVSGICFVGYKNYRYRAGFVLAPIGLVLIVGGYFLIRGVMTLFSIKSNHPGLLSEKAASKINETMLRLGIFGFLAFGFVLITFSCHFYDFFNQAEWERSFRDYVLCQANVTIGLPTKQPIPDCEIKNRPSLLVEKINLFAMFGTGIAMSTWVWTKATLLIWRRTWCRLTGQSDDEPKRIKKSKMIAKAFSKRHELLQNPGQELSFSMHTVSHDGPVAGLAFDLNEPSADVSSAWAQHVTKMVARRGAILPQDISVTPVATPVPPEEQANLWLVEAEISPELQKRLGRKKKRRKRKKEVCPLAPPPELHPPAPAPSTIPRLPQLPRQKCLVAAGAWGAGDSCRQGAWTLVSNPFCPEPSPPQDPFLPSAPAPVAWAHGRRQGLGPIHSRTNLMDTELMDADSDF
IC50 (Protein smoothened [1]),IC50 (Shh Light II),Structure (SMILES),other results
> 2500 nM,–,O=C(Nc1ccccc1Cl)N1CCC(c2nc(-c3cnc4ccccc4c3)no2)CC1,–
1100 nM,2000 nM,O=C(Nc1cnccc1Cl)N1CCC(c2nc(-c3ccc4ccccc4n3)no2)CC1,–
860 nM,360 nM,O=C(NC1CCS(=O)(=O)CC1)N1CCC(c2nc(-c3ccc4ccccc4n3)no2)CC1,IC50 (Protein smoothened [2]): 1600 nM; half-life [3]: 54 min; clearance [4]: 40 mL/min/kg; microsomal CLint [5]: 8 µL/min/mg
1800 nM,850 nM,O=C(NC1CC[S+]([O-])CC1)N1CCC(c2nc(-c3ccc4ccccc4n3)no2)CC1 (configuration not stated),IC50 (Protein smoothened [2]): 4800 nM
1500 nM,3000 nM,Cc1noc(C)c1NC(=O)N1CCC(c2nc(-c3ccc4ccccc4n3)no2)CC1,–
2300 nM,500 nM,CC(=O)N1CCC(NC(=O)N2CCC(c3nc(-c4ccc5ccccc5n4)no3)CC2)CC1,IC50 (Protein smoothened [2]): 1300 nM
> 2500 nM,–,COc1ccccc1NC(=O)N1CCC(c2nc(-c3ncccn3)no2)CC1,–
1500 nM,–,CS(=O)(=O)c1ccc(NC(=O)N2CCC(c3nc(-c4ccc5ccccc5n4)no3)CC2)c(Cl)c1,IC50 (Protein smoothened [2]): 4100 nM; logD [7]: 2.8
1800 nM,–,COc1ccc2nc(-c3noc(C4CCN(C(=O)Nc5ccccc5Cl)CC4)n3)ccc2c1,–
3 nM,5 nM,Cn1c(-c2noc(N3CCN(C(=O)NC4CCCCC4)CC3)n2)nc2ccccc21,IC50 (Protein smoothened [2]): 33 nM; bioavailability [8]: 10%; logD [7]: 2.57; clearance [4]: 26 mL/min/kg; microsomal CLint [5]: 119 µL/min/mg
480 nM,–,O=C(Nc1ccccc1)N1CCC(c2nc(-c3ccc4ccccc4n3)no2)CC1,–
> 2500 nM,–,COc1ccc2ccc(-c3noc(C4CCN(C(=O)Nc5ccccc5Cl)CC4)n3)nc2c1,IC50 (Protein smoothened [2]): > 2500 nM
> 2500 nM,–,O=C(Nc1ccccc1Cl)N1CCC(c2nc(-c3cnccn3)no2)CC1,–
> 2500 nM,–,CCNC(=O)N1CCC(c2nc(-c3ccc4ccccc4n3)no2)CC1,–
> 2500 nM,–,O=C(Nc1ccccc1Cl)N1CCC(c2nc(-c3cccnc3)no2)CC1,–
470 nM,–,O=C(Nc1ccc(Cl)cc1)N1CCC(c2nc(-c3ccc4ccccc4n3)no2)CC1,–
750 nM,–,COc1ccccc1NC(=O)N1CCC(c2nc(-c3cc4ccccc4cn3)no2)CC1,–
670 nM,2300 nM,O=C(N1CCC(c2nc(-c3ccc4ccccc4n3)no2)CC1)N1CCCc2ccccc21,–
110 nM,250 nM,COc1ccccc1OC(=O)N1CCC(c2nc(-c3ccc4ccccc4n3)no2)CC1,–
3400 nM,3200 nM,CN1CCC(NC(=O)N2CCC(c3nc(-c4ccc5ccccc5n4)no3)CC2)CC1,–
> 2500 nM,–,COc1ccccc1NC(=O)N1CCC(c2nc(-c3ccncc3)no2)CC1,–
620 nM,2400 nM,C[C@@H]1C[C@H](c2nc(-c3ccc4ccccc4n3)no2)CCN1C(=O)Nc1ccccc1Cl,–

# Continued, compound first:
Structure (SMILES),IC50 (Protein smoothened [1]),IC50 (Shh Light II),other results
COc1ccccc1NC(=O)N1CCC(c2nc(-c3ccc4ccccc4c3)no2)CC1,2200 nM,–,–
O=C(NC1CCNCC1)N1CCC(c2nc(-c3ccc4ccccc4n3)no2)CC1,2900 nM,2500 nM,IC50 (Protein smoothened [2]): 3700 nM
O=C(NC1CCCCC1)N1CCC(c2nc(-c3ccc4ccccc4n3)no2)CC1,280 nM,57 nM,IC50 (Protein smoothened [2]): 1600 nM; microsomal CLint [5]: > 300 µL/min/mg; fraction unbound [6]: 0.005
COc1ccccc1NC(=O)N1CCC(c2nc(-c3ccccc3C)no2)CC1,> 2500 nM,–,–
COc1ccccc1N(C)C(=O)N1CCC(c2nc(-c3ccc4ccccc4n3)no2)CC1,1400 nM,3100 nM,–
COc1ccccc1NC(=O)N1CCC(c2noc(-c3ccc4ccccc4n3)n2)CC1,15000 nM,2400 nM,–
c1ccc2nc(-c3noc(C4CCN(CC5CCCCC5)CC4)n3)ccc2c1,> 2500 nM,–,–
O=C(Nc1ccccc1Cl)N1CCC(c2nc(-c3ccccn3)no2)CC1,> 2500 nM,–,–
COc1ccccc1NC(=O)N1CCC(c2nc(-c3cnc4ccccc4c3)no2)CC1,1900 nM,–,–
O=C(Nc1ccccc1Cl)N1CCC(F)(c2nc(-c3ccc4ccccc4n3)no2)CC1,1000 nM,1300 nM,–
CC1(c2nc(-c3ccc4ccccc4n3)no2)CCN(C(=O)Nc2ccccc2Cl)CC1,6000 nM,2500 nM,–
O=C(NC1CCOCC1)N1CCC(c2nc(-c3ccc4ccccc4n3)no2)CC1,1700 nM,480 nM,IC50 (Protein smoothened [2]): 8600 nM
COc1ccccc1NC(=O)N1CCC(c2nc(-c3ccccc3)no2)CC1,> 2500 nM,–,–
COc1ccccc1NC(=O)N1CCC(c2nc(-c3ccccn3)no2)CC1,> 2500 nM,–,–
O=C(OCc1ccccc1)N1CCC(c2nc(-c3ccc4ccccc4n3)no2)CC1,> 2500 nM,> 2500 nM,–
O=C(CC1CCCCCC1)N1CCC(c2nc(-c3ccc4ccccc4n3)no2)CC1,1000 nM,840 nM,–
O=C(Nc1ccccc1Cl)N1CCC(c2nc(-c3ccc4cnccc4n3)no2)CC1,2200 nM,–,–
